Experimental data reported in PubChem BioAssay AID248 (DTP/NCI, 2004).
“And” between values parts separate entries of the source, which are not always exact repeats. Equal values may be shown once. Toxic doses and inconclusive results are not listed.

System: L1210 leukemia ip in BDF1 mice, survival T/C
Assay: NCI In Vivo Anticancer Drug Screen. Data for tumor model L1210 Leukemia (intraperitoneal) in B6D2F1 (BDF1) mice
Conditions: endpoint: mean survival time, higher = longer survival
Method in brief: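 In this screen, tumor-bearing mice given compound are compared to those given vehicle, and their survival values are reported as a treated-to-control quotient.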

[1] = dose: 100.0 mg/kg/injection, schedule: Q04DX002 (ip), vehicle: saline
[2] = dose: 200.0 mg/kg/injection, schedule: Q04DX002 (ip), vehicle: saline
[3] = dose: 400.0 mg/kg/injection, schedule: Q04DX002 (ip), vehicle: saline
[4] = dose: 100.0 mg/kg/injection, schedule: Q04DX003 (ip), vehicle: saline
[5] = dose: 200.0 mg/kg/injection, schedule: Q04DX003 (ip), vehicle: saline
[6] = dose: 400.0 mg/kg/injection, schedule: Q04DX003 (ip), vehicle: saline
[7] = dose: 100.0 mg/kg/injection, schedule: Q01DX001 (ip), vehicle: saline
[8] = dose: 200.0 mg/kg/injection, schedule: Q01DX001 (ip), vehicle: saline
[9] = dose: 400.0 mg/kg/injection, schedule: Q01DX001 (ip), vehicle: saline
[10] = dose: 100.0 mg/kg/injection, schedule: Q01DX001 (ip), vehicle: saline with Tween-80
[11] = dose: 100.0 mg/kg/injection, schedule: Q01DX009 (ip), vehicle: saline with Tween-80
[12] = dose: 100.0 mg/kg/injection, schedule: Q04DX002 (ip), vehicle: saline with Tween-80
[13] = dose: 100.0 mg/kg/injection, schedule: Q04DX003 (ip), vehicle: saline with Tween-80
[14] = dose: 200.0 mg/kg/injection, schedule: Q01DX001 (ip), vehicle: saline with Tween-80
[15] = dose: 200.0 mg/kg/injection, schedule: Q01DX009 (ip), vehicle: saline with Tween-80
[16] = dose: 200.0 mg/kg/injection, schedule: Q04DX002 (ip), vehicle: saline with Tween-80
[17] = dose: 200.0 mg/kg/injection, schedule: Q04DX003 (ip), vehicle: saline with Tween-80
[18] = dose: 400.0 mg/kg/injection, schedule: Q01DX001 (ip), vehicle: saline with Tween-80
[19] = dose: 400.0 mg/kg/injection, schedule: Q01DX009 (ip), vehicle: saline with Tween-80
[20] = dose: 400.0 mg/kg/injection, schedule: Q04DX002 (ip), vehicle: saline with Tween-80
[21] = dose: 400.0 mg/kg/injection, schedule: Q04DX003 (ip), vehicle: saline with Tween-80
[22] = dose: 25.0 mg/kg/injection, schedule: Q01DX009 (ip), vehicle: Klucel (hydroxypropylcellulose) (HPC)
[23] = dose: 25.0 mg/kg/injection, schedule: Q04DX003 (ip), vehicle: Klucel (hydroxypropylcellulose) (HPC)
[24] = dose: 100.0 mg/kg/injection, schedule: Q01DX009 (ip), vehicle: saline
[25] = dose: 200.0 mg/kg/injection, schedule: Q01DX009 (ip), vehicle: saline
[26] = dose: 400.0 mg/kg/injection, schedule: Q01DX009 (ip), vehicle: saline
[27] = dose: 100.0 mg/kg/injection, schedule: Q04DX003 (ip), vehicle: Klucel (hydroxypropylcellulose) (HPC)
[28] = dose: 200.0 mg/kg/injection, schedule: Q04DX003 (ip), vehicle: Klucel (hydroxypropylcellulose) (HPC)
[29] = dose: 400.0 mg/kg/injection, schedule: Q04DX003 (ip), vehicle: Klucel (hydroxypropylcellulose) (HPC)
[30] = dose: 100.0 mg/kg/injection, schedule: Q01DX009 (ip), vehicle: Klucel (hydroxypropylcellulose) (HPC)
[31] = dose: 100.0 mg/kg/injection, schedule: Q04DX002 (ip), vehicle: Klucel (hydroxypropylcellulose) (HPC)
[32] = dose: 200.0 mg/kg/injection, schedule: Q01DX009 (ip), vehicle: Klucel (hydroxypropylcellulose) (HPC)
[33] = dose: 200.0 mg/kg/injection, schedule: Q04DX002 (ip), vehicle: Klucel (hydroxypropylcellulose) (HPC)
[34] = dose: 400.0 mg/kg/injection, schedule: Q04DX002 (ip), vehicle: Klucel (hydroxypropylcellulose) (HPC)

For `COC(=O)C1CCC(=O)CC1`, the T/C [1] was 96 % of control, the T/C [2] was 101 % of control and the T/C [3] was 99 % of control.

`CN(C)c1cc(O)ccc1[N+](=O)[O-]` was tested, and the T/C [4] was 103 % of control, the T/C [5] was 95 % of control and the T/C [6] was 100 % of control.

For `COC1c2ccccc2CC1(C)C` (configuration not stated), the T/C [1] was 118 % of control, the T/C [2] was 105 % of control and the T/C [3] was 94 % of control.

For `Cc1ccc(CC(=O)c2c[nH]c3ccccc23)c(Cl)c1C`, the T/C (dose: 50.0 mg/kg/injection, schedule: Q01DX001 (ip), vehicle: saline) was 96 % of control, the T/C [7] was 98 % of control and the T/C [8] was 93 % of control. The T/C [9] was 98 % of control.

With `CC1(C)N=C(N)N=C(N)N1c1cccc(OCCCc2ccccc2)c1` the T/C (dose: 25.0 mg/kg/injection, schedule: Q01DX001 (ip), vehicle: Klucel (hydroxypropylcellulose) (HPC)) was 86 % of control, the T/C (dose: 50.0 mg/kg/injection, schedule: Q01DX001 (ip), vehicle: Klucel (hydroxypropylcellulose) (HPC)) was 86 % of control and the T/C (dose: 100.0 mg/kg/injection, schedule: Q01DX001 (ip), vehicle: Klucel (hydroxypropylcellulose) (HPC)) was 91 % of control.

In the case of `CC(=O)NC(C)C(N)=O` (configuration not stated), the T/C [1] was 108 % of control, the T/C [2] was 105 % of control and the T/C [3] was 96 % of control.

`CCCCCCC(C)S(=O)(=O)c1ccc(C)cc1` (configuration not stated) was tested, and the T/C [7] was 87 % of control and 94 % of control, the T/C [8] was 90 % of control and 91 % of control and the T/C [9] was 94 % of control.

With `Cc1c(Cl)cccc1NC(=O)Nc1cccc(C(F)(F)F)c1` the T/C [10] was 87 % of control and 88 % of control, the T/C [11] was 94 % of control and 104 % of control and the T/C [12] was 93 % of control and 90 % of control. For the same compound, the T/C [13] was 94 % of control, the T/C [14] was 91 % of control and the T/C [15] was 93 % of control and 97 % of control. The T/C [16] was 88 % of control and 89 % of control, the T/C [17] was 97 % of control and the T/C [18] was 94 % of control and 89 % of control. For the same compound, the T/C [19] was 100 % of control and 104 % of control, the T/C [20] was 100 % of control and 90 % of control and the T/C [21] was 96 % of control.

With `CN(N)P(=S)(c1ccccc1)N(C)N` the T/C (dose: 6.25 mg/kg/injection, schedule: Q01DX009 (ip), vehicle: Klucel (hydroxypropylcellulose) (HPC)) was 97 % of control, the T/C (dose: 12.5 mg/kg/injection, schedule: Q01DX009 (ip), vehicle: Klucel (hydroxypropylcellulose) (HPC)) was 100 % of control and the T/C (dose: 12.5 mg/kg/injection, schedule: Q04DX003 (ip), vehicle: Klucel (hydroxypropylcellulose) (HPC)) was 97 % of control. For the same compound, the T/C [22] was 94 % of control and the T/C [23] was 92 % of control.

With `O=C(NC(C(O)CO)C(OC(=O)c1ccccc1)C(O)CO)c1ccccc1` (configuration not stated) the T/C [11] was 105 % of control, the T/C [15] was 94 % of control and the T/C [19] was 94 % of control.

For `CCOC(=O)c1ccc(N(CC(O)CN=[N+]=[N-])S(=O)(=O)c2ccc(C)cc2)cc1` (configuration not stated), the T/C [10] was 101 % of control, the T/C [11] was 102 % of control and 107 % of control and the T/C [12] was 98 % of control. For the same compound, the T/C [13] was 88 % of control, the T/C [14] was 101 % of control and the T/C [15] was 95 % of control and 100 % of control. The T/C [16] was 93 % of control and 89 % of control, the T/C [18] was 104 % of control and the T/C [19] was 104 % of control and 91 % of control. For the same compound, the T/C [20] was 96 % of control and 89 % of control and the T/C [21] was 88 % of control.

With `O=C(NCc1cnccn1)Oc1ccc([N+](=O)[O-])cc1` the T/C (dose: 50.0 mg/kg/injection, schedule: Q01DX009 (ip), vehicle: saline with Tween-80) was 93 % of control, the T/C [11] was 103 % of control and the T/C [19] was 98 % of control.

For `CC[CH2][Sn]([CH2]CC)([O]S(C)(=O)=O)[O]S(C)(=O)=O`, the T/C (dose: 1.56 mg/kg/injection, schedule: Q01DX009 (ip), vehicle: Klucel (hydroxypropylcellulose) (HPC)) was 115 % of control and the T/C (dose: 3.12 mg/kg/injection, schedule: Q01DX009 (ip), vehicle: Klucel (hydroxypropylcellulose) (HPC)) was 97 % of control.

In the case of `COC1C(O)C(O)C(O)C(O)C1OS(=O)(=O)c1ccc(C)cc1` (configuration not stated), the T/C (dose: 375.0 mg/kg/injection, schedule: Q01DX001 (ip), vehicle: carboxymethylcellulose (CMC)) was 105 % of control, the T/C (dose: 750.0 mg/kg/injection, schedule: Q01DX001 (ip), vehicle: carboxymethylcellulose (CMC)) was 107 % of control and the T/C (dose: 1500.0 mg/kg/injection, schedule: Q01DX001 (ip), vehicle: carboxymethylcellulose (CMC)) was 98 % of control.

In the case of `O=S1(=O)C2C=CCC1C(O)CC2` (configuration not stated), the T/C [24] was 101 % of control, the T/C [25] was 99 % of control and the T/C [26] was 101 % of control.

With `CC(C)(O)c1ccccc1` the T/C [7] was 105 % of control, the T/C [11] was 88 % of control and the T/C [13] was 93 % of control. For the same compound, the T/C [8] was 100 % of control, the T/C [15] was 90 % of control and the T/C [17] was 89 % of control. The T/C [9] was 103 % of control, the T/C [19] was 92 % of control and the T/C [21] was 91 % of control.

With `CCCCCCCCCCCCSC1=NS(=O)(=O)c2ccccc21` the T/C [27] was 106 % of control, the T/C [28] was 94 % of control and the T/C [29] was 90 % of control.

In the case of `CC(=O)Nc1ccc(C(=O)Nc2ccc(C3=NCCN3)cc2)cc1C(=O)Nc1ccc(C2=NCCN2)cc1`, the T/C (dose: 62.0 mg/kg/injection, schedule: Q01DX015 (ip), vehicle: carboxymethylcellulose (CMC)) was 317 % of control and the T/C (dose: 250.0 mg/kg/injection, schedule: Q01DX015 (ip), vehicle: carboxymethylcellulose (CMC)) was 158 % of control.

With `Cc1ccc(NC(=S)Nc2ccccc2)c(C)c1` the T/C (dose: 100.0 mg/kg/injection, schedule: Q01DX001 (ip), vehicle: other) was 89 % of control, the T/C [30] was 102 % of control and the T/C [31] was 87 % of control. The T/C (dose: 200.0 mg/kg/injection, schedule: Q01DX001 (ip), vehicle: other) was 94 % of control, the T/C [32] was 97 % of control and the T/C [33] was 90 % of control. The T/C (dose: 400.0 mg/kg/injection, schedule: Q01DX001 (ip), vehicle: other) was 97 % of control, the T/C (dose: 400.0 mg/kg/injection, schedule: Q01DX009 (ip), vehicle: Klucel (hydroxypropylcellulose) (HPC)) was 94 % of control and the T/C [34] was 106 % of control.

With `c1cncc(CNc2ncn[nH]2)c1` the T/C [24] was 103 % of control, the T/C [4] was 97 % of control and the T/C [25] was 97 % of control. The T/C [5] was 103 % of control, the T/C [26] was 103 % of control and the T/C [6] was 95 % of control.

In the case of `CN1C(=O)CCS(=O)(=O)C1c1ccc(Cl)cc1` (configuration not stated), the T/C [22] was 104 % of control, the T/C [23] was 94 % of control and the T/C (dose: 50.0 mg/kg/injection, schedule: Q01DX009 (ip), vehicle: Klucel (hydroxypropylcellulose) (HPC)) was 103 % of control. For the same compound, the T/C (dose: 50.0 mg/kg/injection, schedule: Q04DX003 (ip), vehicle: Klucel (hydroxypropylcellulose) (HPC)) was 101 % of control, the T/C [30] was 101 % of control and the T/C [27] was 101 % of control. For the same compound, the T/C [32] was 92 % of control, the T/C [28] was 97 % of control and the T/C [29] was 99 % of control.

For `O=C1c2ccccc2C(=O)N1CCCCCCCCCN1C(=O)c2ccccc2C1=O`, the T/C [31] was 113 % of control, the T/C [33] was 90 % of control and the T/C [34] was 90 % of control.

With `Oc1ccc(Br)cc1/C=N/NC(=S)Nc1cccc2cccnc12` the T/C [8] was 94 % of control and the T/C [9] was 96 % of control.
